Columns and labels:
Assay in all cases: combination Emax (second highest fraction inhibited in the dose matrix, 72 h); higher = more inhibition; extreme values may be limits of the assay
[1] = system: BFTC-905 (Bladder Carcinoma)
Method in brief: (§1)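 Cell lines grown in DMEM/F12 or RPMI with 10% FBS were plated in 1536-well plates and held 24 hours at 37°C, 5% CO2 before 72 hours of exposure to two-drug dose matrices, with DMSO typically at 0.2%. CellTiter-Glo 2.0 luminescence gave viability, which was converted to inhibition. Vehicle wells were set to 0 and blank wells to 1. Combination Emax is the second-highest inhibition in the matrix, and Bliss excess is the observed combination effect minus the expected EA + EB − EA·EB, where EA and EB are the single-agent effects.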

[2] = system: CAMA-1 (Breast Carcinoma)
Method in brief: as §1

[3] = system: DND-41 (T-Lymphoblastic Leukemia)
Method in brief: as §1

[4] = system: DiFi (Colorectal Carcinoma)
Method in brief: as §1

[5] = system: EVSA-T (Breast Carcinoma)
Method in brief: as §1

[6] = system: HL-60 (Acute Myeloid Leukemia)
Method in brief: as §1

[7] = system: KYSE-180 (Esophageal Squamous Cell Carcinoma)
Method in brief: as §1

[8] = system: L-540 (Hodgkin's Lymphoma)
Method in brief: as §1

[9] = system: MFM-223 (Breast Carcinoma)
Method in brief: as §1

[10] = system: MKN28 (Gastric Carcinoma)
Method in brief: as §1

[11] = system: MOLT-16 (T-Lymphoblastic Leukemia)
Method in brief: as §1

[12] = system: MS751 (Cervical Carcinoma)
Method in brief: as §1

[13] = system: NCI-H2818 (Mesothelioma)
Method in brief: as §1

[14] = system: SU-DHL-8 (B-Cell Non-Hodgkin's Lymphoma)
Method in brief: as §1

[15] = system: SW837 (Colorectal Carcinoma)
Method in brief: as §1

[16] = system: TC-71 (Ewing's Sarcoma)
Method in brief: as §1

[17] = system: TE-6 (Esophageal Squamous Cell Carcinoma)
Method in brief: as §1

[18] = system: TOV-112D (Ovarian Carcinoma)
Method in brief: as §1

[19] = system: WIL2-NS (Non-Cancerous)
Method in brief: as §1

[20] = system: WM-115 (Melanoma)
Method in brief: as §1

| SMILES | combination Emax [1] | combination Emax [2] | combination Emax [3] | combination Emax [4] | combination Emax [5] | combination Emax [6] | combination Emax [7] | combination Emax [8] | combination Emax [9] | combination Emax [10] | combination Emax [11] | combination Emax [12] | combination Emax [13] | combination Emax [14] | combination Emax [15] | combination Emax [16] | combination Emax [17] | combination Emax [18] | combination Emax [19] | combination Emax [20] |
| --- | --- | --- | --- | --- | --- | --- | --- | --- | --- | --- | --- | --- | --- | --- | --- | --- | --- | --- | --- | --- |
| NC1(C(=O)N[C@@H](CCO)c2ccc(Cl)cc2)CCN(c2ncnc3[nH]ccc23)CC1 [Capivasertib] + CC(=O)c1c(C)c2cnc(Nc3ccc(N4CCNCC4)cn3)nc2n(C2CCCC2)c1=O [Palbociclib] (first compound max 10 µM, 7x7, partner max 10 µM) | 0.397 | 0.668 | 0.462 | 0.619 | 0.942 | 0.799 | 0.572 | 0.214 | 0.882 | 0.155 | 0.924 | 0.236 | 0.316 | 0.571 | 0.151 | 0.511 | 0.723 | 0.542 | 0.849 | 0.574 |
| NC1(C(=O)N[C@@H](CCO)c2ccc(Cl)cc2)CCN(c2ncnc3[nH]ccc23)CC1 [Capivasertib] + CC(C)n1c(=O)n(C)c2cnc3cc(F)c(-c4ccc(OCCCN5CCCCC5)nc4)cc3c21 [AZD1390] (first compound max 10 µM, 7x7, partner max 0.3 µM) | 0.221 | 0.665 | 0.165 | 0.592 | 0.975 | 0.225 | 0.488 | 0.265 | 0.864 | 0.145 | 0.719 | 0.19 | 0.224 | 0.107 | 0.25 | 0.263 | 0.599 | 0.175 | 0.682 | 0.565 |
| NC1(C(=O)N[C@@H](CCO)c2ccc(Cl)cc2)CCN(c2ncnc3[nH]ccc23)CC1 [Capivasertib] + CCN(CCO)CCCOc1ccc2c(Nc3cc(CC(=O)Nc4cccc(F)c4)[nH]n3)ncnc2c1 [AZD2811] (first compound max 10 µM, 7x7, partner max 1 µM) | 0.428 | 0.768 | 0.224 | 0.658 | 0.979 | 0.859 | 0.51 | 0.361 | 0.918 | 0.206 | 1 | 0.632 | 0.294 | 0.324 | 0.261 | 0.854 | 0.673 | 0.42 | 0.641 | 0.583 |

From the supplement of paper PMC11061612
